# Laboratory results from US20260262643A1, “HERBICIDAL BENZOXAZINES” (FMC CORPORATION, priority 2022, published 2026).
# Key:
# barnyardgrass [1] = test: Test C preemergence; assay type: in vivo, Echinochloa crusgalli; settings: 0 to 100 scale (0 no effect, 100 complete control); for Plant response rating, Barnyardgrass: Preemergence, 500 g ai/ha, visual rating after 10 days; for Barnyardgrass plant response rating: preemergence, 125 g ai/ha
# Outline: (§1)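 Pre: seeds in loam/sand, directed soil spray. Post: 1–2 leaf plants, 2–10 cm. Cmpd in non-phytotoxic solvent + surfactant. Greenhouse 10 d; visual rating vs untreated, 0 = none, 100 = complete control.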
# blackgrass [2] = test: Test C preemergence; assay type: in vivo, Alopecurus myosuroides; settings: 0 to 100 scale (0 no effect, 100 complete control); for Plant response rating, Blackgrass: Preemergence, 500 g ai/ha, visual rating after 10 days; for Blackgrass plant response rating: Test C, preemergence, 125 g ai/ha
# Outline: as §1
# corn [3] = test: Test C preemergence; assay type: in vivo, Zea mays; settings: 0 to 100 scale (0 no effect, 100 complete control); for Plant response rating, Corn: Preemergence, 500 g ai/ha, visual rating after 10 days; for Corn plant response rating: Test C, preemergence, 125 g ai/ha
# Outline: as §1
# green foxtail [4] = test: Test C preemergence; assay type: in vivo, Setaria viridis; settings: 0 to 100 scale (0 no effect, 100 complete control); for Plant response rating, Foxtail, Green: Preemergence, 500 g ai/ha, visual rating after 10 days; for Foxtail, Green plant response rating: Test C, preemergence, 125 g ai/ha
# Outline: as §1
# kochia [5] = test: Test C preemergence; assay type: in vivo, Bassia scoparia; settings: 0 to 100 scale (0 no effect, 100 complete control); for Plant response rating, Kochia: Preemergence, 500 g ai/ha, visual rating after 10 days; for Kochia plant response rating: Test C, preemergence, 125 g ai/ha
# Outline: as §1
# oat, wild [6] = test: Test C preemergence; assay type: in vivo, Avena fatua; settings: 0 to 100 scale (0 no effect, 100 complete control); for Plant response rating, Oat, Wild: Preemergence, 500 g ai/ha, visual rating after 10 days; for Oat, Wild plant response rating: Test C, preemergence, 125 g ai/ha
# Outline: as §1
# pigweed, palmer [7] = test: Test C preemergence; assay type: in vivo, Amaranthus palmeri; settings: 0 to 100 scale (0 no effect, 100 complete control); for Plant response rating, Pigweed, Palmer: Preemergence, 500 g ai/ha, visual rating after 10 days; for Pigweed, Palmer plant response rating: Test C, preemergence, 125 g ai/ha
# Outline: as §1
# ragweed [8] = test: Test C preemergence; assay type: in vivo, Ambrosia artemisiifolia; settings: 0 to 100 scale (0 no effect, 100 complete control); for Plant response rating, Ragweed: Preemergence, 500 g ai/ha, visual rating after 10 days; for Ragweed plant response rating: Test C, preemergence, 125 g ai/ha
# Outline: as §1
# ryegrass, Italian [9] = test: Test C preemergence; assay type: in vivo, Lolium multiflorum; settings: 0 to 100 scale (0 no effect, 100 complete control); for Plant response rating, Ryegrass, Italian: Preemergence, 500 g ai/ha, visual rating after 10 days; for Ryegrass, Italian plant response rating: Test C, preemergence, 125 g ai/ha
# Outline: as §1
# soybean [10] = test: Test C preemergence; assay type: in vivo, Glycine max; settings: 0 to 100 scale (0 no effect, 100 complete control); for Plant response rating, Soybean: Preemergence, 500 g ai/ha, visual rating after 10 days; for Soybean plant response rating: Test C, preemergence, 125 g ai/ha
# Outline: as §1
# wheat [11] = test: Test C preemergence; assay type: in vivo, Triticum aestivum; settings: 0 to 100 scale (0 no effect, 100 complete control); for Plant response rating, Wheat: Preemergence, 500 g ai/ha, visual rating after 10 days; for Wheat plant response rating: Test C, preemergence, 125 g ai/ha
# Outline: as §1
# barnyardgrass [12] = test: Test C postemergence; assay type: in vivo, Echinochloa crusgalli; settings: 10 days
# Outline: as §1
# blackgrass [13] = test: Test C postemergence; assay type: in vivo, Alopecurus myosuroides; settings: 10 days
# Outline: as §1
# corn [14] = test: Test C postemergence; assay type: in vivo, Zea mays; settings: 10 days
# Outline: as §1
# green foxtail [15] = test: Test C postemergence; assay type: in vivo, Setaria viridis; settings: 10 days
# Outline: as §1
# kochia [16] = test: Test C postemergence; assay type: in vivo, Bassia scoparia; settings: 10 days
# Outline: as §1
# oat, wild [17] = test: Test C postemergence; assay type: in vivo, Avena fatua; settings: 10 days
# Outline: as §1
# pigweed, palmer [18] = test: Test C postemergence; assay type: in vivo, Amaranthus palmeri; settings: 10 days
# Outline: as §1
# ragweed [19] = test: Test C postemergence; assay type: in vivo, Ambrosia artemisiifolia; settings: 10 days
# Outline: as §1
# ryegrass, Italian [20] = test: Test C postemergence; assay type: in vivo, Lolium multiflorum; settings: 10 days
# Outline: as §1
# soybean [21] = test: Test C postemergence; assay type: in vivo, Glycine max; settings: 10 days
# Outline: as §1
# wheat [22] = test: Test C postemergence; assay type: in vivo, Triticum aestivum; settings: 10 days
# Outline: as §1
# galium = test: Test C postemergence; assay type: in vivo, Galium aparine; settings: 10 days
# Outline: as §1
# horseweed = test: Test C postemergence; assay type: in vivo, Erigeron canadensis; settings: 10 days
# Outline: as §1
# barnyardgrass [23] = test: Test D flooded paddy test; assay type: in vivo, Echinochloa crus-galli; settings: 250 g ai/ha, applied to paddy water, visual rating after 13 to 14 days, scale 0 to 100 (0 no effect, 100 complete control)
# Outline: (§2)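 At the 2-leaf stage, floodwater 3 cm deep received the test compound; that depth persisted throughout. Plants scored visually 13 to 14 days on, 0 (no effect) to 100 (complete control), dash indicating no result.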
# ducksalad = test: Test D flooded paddy test; assay type: in vivo, Heteranthera limosa; settings: 250 g ai/ha, applied to paddy water, visual rating after 13 to 14 days, scale 0 to 100 (0 no effect, 100 complete control)
# Outline: as §2
# rice = test: Test D flooded paddy test; assay type: in vivo, Oryza sativa; settings: 250 g ai/ha, applied to paddy water, visual rating after 13 to 14 days, scale 0 to 100 (0 no effect, 100 complete control)
# Outline: as §2
# sedge, umbrella = test: Test D flooded paddy test; assay type: in vivo, Cyperus difformis; settings: 250 g ai/ha, applied to paddy water, visual rating after 13 to 14 days, scale 0 to 100 (0 no effect, 100 complete control)
# Outline: as §2
# [24] = 125 g ai/ha, postemergence, 0 to 100 scale, 0 no effect, 100 complete control
# [25] = Postemergence, 500 g ai/ha, visual 0 to 100 scale (0 no effect, 100 complete control)
smiles,measurement,setting,value
"CC(C)c1ncn(-c2cc3c(c(C(=O)N4C[C@H](C)Oc5c(Cl)cccc54)c2)OCO3)n1 [Compound 258, [(2S)-8-chloro-2-methyl-2,3-dihydro-1,4-benzoxazin-4-yl]-[6-(3-isopropyl-1,2,4-triazol-1-yl)-1,3-benzodioxol-4-yl]methanone]","Plant response rating, Barnyardgrass",barnyardgrass [1],100
same,Barnyardgrass plant response rating,barnyardgrass [1]; Test C,80
same,"Plant response rating, Blackgrass",blackgrass [2],60
same,Blackgrass plant response rating,blackgrass [2],40
same,"Plant response rating, Corn",corn [3],20
same,Corn plant response rating,corn [3],10
same,"Plant response rating, Foxtail, Green",green foxtail [4],100
same,"Foxtail, Green plant response rating",green foxtail [4],100
same,"Plant response rating, Kochia",kochia [5],100
same,Kochia plant response rating,kochia [5],90
same,"Plant response rating, Oat, Wild","oat, wild [6]",90
same,"Oat, Wild plant response rating","oat, wild [6]",40
same,"Plant response rating, Pigweed, Palmer","pigweed, palmer [7]",100
same,"Pigweed, Palmer plant response rating","pigweed, palmer [7]",100
same,"Plant response rating, Ragweed",ragweed [8],50
same,Ragweed plant response rating,ragweed [8],40
same,"Plant response rating, Ryegrass, Italian","ryegrass, Italian [9]",100
same,"Ryegrass, Italian plant response rating","ryegrass, Italian [9]",90
same,"Plant response rating, Soybean",soybean [10],100
same,Soybean plant response rating,soybean [10],50
same,"Plant response rating, Wheat",wheat [11],60
same,Wheat plant response rating,wheat [11],50
same,"Plant response rating, Barnyardgrass",barnyardgrass [12]; [24],40
same,"Plant response rating, Barnyardgrass",barnyardgrass [12]; [25],90
same,pest or weed control at 125 g/ha,"blackgrass [13]; Alopecurus myosuroides, post-emergence, 240 h, 125 g ai/ha, postemergence, 0 to 100 scale (0 no effect, 100 complete control), read-out: Plant response rating, Blackgrass",50%
same,pest or weed control at 500 g/ha,"blackgrass [13]; Alopecurus myosuroides, post-emergence, 240 h, Postemergence, 500 g ai/ha, visual 0 to 100 scale (0 no effect, 100 complete control), read-out: Plant response rating, Blackgrass",100%
same,"Corn plant response rating (crop injury, 0 = no effect, 100 = complete kill) at 125 g/ha","corn [14]; Zea mays, post-emergence, 240 h, 125 g ai/ha, postemergence, 0 to 100 scale (0 no effect, 100 complete control)",70%
same,"Corn plant response rating (crop injury, 0 = no effect, 100 = complete kill) at 500 g/ha","corn [14]; Zea mays, post-emergence, 240 h, Postemergence, 500 g ai/ha, visual 0 to 100 scale (0 no effect, 100 complete control)",80%
same,"Plant response rating, Foxtail, Green",green foxtail [15]; [24],50
same,"Plant response rating, Foxtail, Green",green foxtail [15]; [25],90
same,"Plant response rating, Kochia",kochia [16]; [24],70
same,"Plant response rating, Kochia",kochia [16]; [25],100
same,"Plant response rating, Oat, Wild","oat, wild [17]; [24]",30
same,"Plant response rating, Oat, Wild","oat, wild [17]; [25]",90
same,"Plant response rating, Pigweed, Palmer","pigweed, palmer [18]; [24]",100
same,"Plant response rating, Pigweed, Palmer","pigweed, palmer [18]; [25]",100
same,"Plant response rating, Ragweed",ragweed [19]; [24],70
same,"Plant response rating, Ragweed",ragweed [19]; [25],90
same,"Plant response rating, Ryegrass, Italian","ryegrass, Italian [20]; [24]",50
same,"Plant response rating, Ryegrass, Italian","ryegrass, Italian [20]; [25]",80
same,"Plant response rating, Soybean",soybean [21]; [24],100
same,"Plant response rating, Soybean",soybean [21]; [25],100
same,"Plant response rating, Wheat",wheat [22]; [24],20
same,"Plant response rating, Wheat",wheat [22]; [25],50
same,"Plant response rating, Galium",galium; [24],100
same,"Plant response rating, Galium",galium; [25],100
same,"Plant response rating, Horseweed",horseweed; [24],70
same,"Plant response rating, Horseweed",horseweed; [25],90
same,"Plant response rating, Barnyardgrass (Flood)",barnyardgrass [23],35
same,"Plant response rating, Ducksalad (Flood)",ducksalad,98
same,"Plant response rating, Rice (Flood)",rice,10
same,"Plant response rating, Sedge, Umbrella (Flood)","sedge, umbrella",98
C[C@H]1CN(C(=O)c2cc(-n3cnc(C4CCC4)n3)cc3c2OCCO3)c2cccc(Cl)c2O1 [Compound 157],Barnyardgrass plant response rating,barnyardgrass [1],50
same,"Plant response rating, Barnyardgrass",barnyardgrass [1],90
same,"Plant response rating, Blackgrass",blackgrass [2],30
same,Blackgrass plant response rating,blackgrass [2],30
same,"Plant response rating, Corn",corn [3],0
same,Corn plant response rating,corn [3],0
same,"Plant response rating, Foxtail, Green",green foxtail [4],100
same,"Foxtail, Green plant response rating",green foxtail [4],100
same,"Plant response rating, Kochia",kochia [5],90
same,Kochia plant response rating,kochia [5],20
same,"Plant response rating, Oat, Wild","oat, wild [6]",50
same,"Oat, Wild plant response rating","oat, wild [6]",0
same,"Plant response rating, Pigweed, Palmer","pigweed, palmer [7]",100
same,"Pigweed, Palmer plant response rating","pigweed, palmer [7]",100
same,"Plant response rating, Ragweed",ragweed [8],80
same,Ragweed plant response rating,ragweed [8],90
same,"Plant response rating, Ryegrass, Italian","ryegrass, Italian [9]",90
same,"Ryegrass, Italian plant response rating","ryegrass, Italian [9]",70
same,"Plant response rating, Soybean",soybean [10],60
same,Soybean plant response rating,soybean [10],50
same,"Plant response rating, Wheat",wheat [11],30
same,Wheat plant response rating,wheat [11],0
same,"Plant response rating, Barnyardgrass",barnyardgrass [12]; [24],30
same,"Plant response rating, Barnyardgrass",barnyardgrass [12]; [25],70
same,"Plant response rating, Blackgrass",blackgrass [13]; [24],60
same,"Plant response rating, Blackgrass",blackgrass [13]; [25],70
same,"Plant response rating, Corn",corn [14]; [24],10
same,"Plant response rating, Corn",corn [14]; [25],20
same,"Plant response rating, Foxtail, Green",green foxtail [15]; [24],70
same,"Plant response rating, Foxtail, Green",green foxtail [15]; [25],90
same,"Plant response rating, Kochia",kochia [16]; [24],90
same,"Plant response rating, Kochia",kochia [16]; [25],100
same,"Plant response rating, Oat, Wild","oat, wild [17]; [24]",20
same,"Plant response rating, Oat, Wild","oat, wild [17]; [25]",20
same,"Plant response rating, Pigweed, Palmer","pigweed, palmer [18]; [24]",90
same,"Plant response rating, Pigweed, Palmer","pigweed, palmer [18]; [25]",100
same,"Plant response rating, Ragweed",ragweed [19]; [24],100
same,"Plant response rating, Ragweed",ragweed [19]; [25],100
same,"Plant response rating, Ryegrass, Italian","ryegrass, Italian [20]; [24]",30
same,"Plant response rating, Ryegrass, Italian","ryegrass, Italian [20]; [25]",80
same,"Plant response rating, Soybean",soybean [21]; [24],100
same,"Plant response rating, Soybean",soybean [21]; [25],100
same,"Plant response rating, Wheat",wheat [22]; [24],20
same,"Plant response rating, Wheat",wheat [22]; [25],30
same,"Plant response rating, Galium",galium; [24],100
same,"Plant response rating, Galium",galium; [25],100
same,"Plant response rating, Horseweed",horseweed; [24],30
same,"Plant response rating, Horseweed",horseweed; [25],90
same,"Plant response rating, Barnyardgrass (Flood)",barnyardgrass [23],15
same,"Plant response rating, Ducksalad (Flood)",ducksalad,0
same,"Plant response rating, Rice (Flood)",rice,20
same,"Plant response rating, Sedge, Umbrella (Flood)","sedge, umbrella",45
